Experimental data published in the supplement of paper PMC10307832.

Tests used:
Experiment in all cases: relative viability (nuclei count vs DMSO), 5 days (fraction); higher = more cells survive
Sunitinib + Palbociclib = compound: CCN(CC)CCNC(=O)c1c(C)[nH]c(/C=C2\C(=O)Nc3ccc(F)cc32)c1C [Sunitinib] + CC(=O)c1c(C)c2cnc(Nc3ccc(N4CCNCC4)cn3)nc2n(C2CCCC2)c1=O [Palbociclib] (partner 0.5 µM)
In short: (§1)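 Relative viability divides the nuclei count in treated wells by that in vehicle wells. Lung cancer cell lines were seeded in 1536-well plates, dosed by pin tool the next day, and fixed and stained after 5 days in one step with final 0.05% Triton X-100, 1% formaldehyde and 1 ug/ml Hoechst. Dosing was a single drug or a fixed anchor-drug dose plus five library-drug doses (not always all listed) in √10 steps, and values are medians of duplicate plates imaged at 4×.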

Sunitinib + Pictilisib = compound: CCN(CC)CCNC(=O)c1c(C)[nH]c(/C=C2\C(=O)Nc3ccc(F)cc32)c1C [Sunitinib] + CS(=O)(=O)N1CCN(Cc2cc3nc(-c4cccc5[nH]ncc45)nc(N4CCOCC4)c3s2)CC1 [Pictilisib] (partner 1 µM)
In short: as §1

Sunitinib + Phenformin = compound: CCN(CC)CCNC(=O)c1c(C)[nH]c(/C=C2\C(=O)Nc3ccc(F)cc32)c1C [Sunitinib] + N=C(N)NC(=N)NCCc1ccccc1 [Phenformin] (partner 250 µM)
In short: as §1

Sunitinib + Decitabine = compound: CCN(CC)CCNC(=O)c1c(C)[nH]c(/C=C2\C(=O)Nc3ccc(F)cc32)c1C [Sunitinib] + Nc1ncn([C@H]2C[C@H](O)[C@@H](CO)O2)c(=O)n1 [Decitabine] (partner 2 µM)
In short: as §1

Cell Line	relative viability (Sunitinib + Palbociclib; first compound 0.02 µM)	relative viability (Sunitinib + Palbociclib; first compound 0.06325 µM)	relative viability (Sunitinib + Palbociclib; first compound 0.2 µM)	relative viability (Sunitinib + Palbociclib; first compound 0.6325 µM)	relative viability (Sunitinib + Palbociclib; first compound 2 µM)	relative viability (Sunitinib + Pictilisib; first compound 0.02 µM)	relative viability (Sunitinib + Pictilisib; first compound 0.06325 µM)	relative viability (Sunitinib + Pictilisib; first compound 0.2 µM)	relative viability (Sunitinib + Pictilisib; first compound 0.6325 µM)	relative viability (Sunitinib + Pictilisib; first compound 2 µM)	relative viability (Sunitinib + Phenformin; first compound 0.02 µM)	relative viability (Sunitinib + Phenformin; first compound 0.06325 µM)	relative viability (Sunitinib + Phenformin; first compound 0.2 µM)	relative viability (Sunitinib + Phenformin; first compound 0.6325 µM)	relative viability (Sunitinib + Phenformin; first compound 2 µM)	relative viability (Sunitinib + Decitabine; first compound 0.02 µM)	relative viability (Sunitinib + Decitabine; first compound 0.06325 µM)	relative viability (Sunitinib + Decitabine; first compound 0.2 µM)	relative viability (Sunitinib + Decitabine; first compound 0.6325 µM)	relative viability (Sunitinib + Decitabine; first compound 2 µM)
SK-MES-1	0.309	0.322	0.363	0.397	0.388	0.352	0.382	0.344	0.316	0.359	0.619	0.665	0.689	0.655	0.52	0.345	0.369	0.368	0.389	0.379
NCI-H1793	–	0.307	0.311	0.299	0.319	–	0.296	0.361	0.241	0.297	0.349	0.319	0.483	0.326	0.333	–	0.496	0.487	0.549	0.49
NCI-H1734	0.364	0.375	0.37	0.34	0.323	0.433	0.518	0.522	0.452	0.423	0.345	0.46	0.474	0.392	0.358	0.528	0.495	0.514	0.477	0.497
NCI-H1437	0.294	0.347	0.305	0.346	0.329	0.376	0.559	0.427	0.456	0.434	0.362	0.314	0.321	0.297	0.323	0.566	0.606	0.624	0.514	0.628
HOP-62	0.381	0.485	0.496	0.427	0.533	0.66	1.08	0.745	0.696	0.724	0.614	0.713	0.745	0.661	0.698	0.22	0.218	0.252	0.209	0.239
HCC-15	0.707	0.737	0.792	0.696	0.715	0.68	0.791	0.888	0.749	0.774	0.424	0.523	0.588	0.49	0.404	0.639	0.829	0.708	0.671	0.677
HCC-44	–	–	1.01	0.925	1.01	0.524	0.653	0.968	0.786	0.598	0.29	0.238	0.274	0.145	0.142	0.931	1.04	0.99	0.951	0.949
NCI-H322M	0.454	0.48	0.479	0.461	0.497	0.497	0.553	0.582	0.511	0.474	0.736	0.857	–	0.855	0.7	0.664	0.72	0.654	0.798	0.696
NCI-H2023	0.361	0.424	0.456	0.437	0.343	0.205	0.265	0.26	0.269	0.23	0.391	0.446	0.519	0.459	0.385	0.242	0.225	0.247	0.243	0.217
NCI-H661	0.383	0.444	0.397	0.41	0.47	0.385	0.362	0.368	0.319	0.441	0.263	0.31	0.27	0.264	0.265	0.509	0.578	0.544	0.56	0.597
BEN	0.487	0.467	0.452	0.445	0.496	0.494	0.552	0.615	0.566	0.52	0.277	0.266	0.267	0.275	0.265	0.698	0.766	0.7	0.62	0.715
ABC-1	0.623	0.57	0.609	0.763	0.724	0.818	–	0.668	0.991	0.802	0.218	0.254	0.218	0.242	0.225	1.01	0.926	1.07	1.22	0.849
LOU-NH91	0.592	0.536	0.562	0.473	0.555	0.525	0.537	0.533	0.556	0.53	0.734	0.699	0.765	0.825	0.764	0.787	0.824	0.826	0.805	0.835
HCC-366	0.342	0.393	0.652	0.413	0.409	0.0687	0.181	0.128	0.175	0.137	0.559	0.624	0.644	0.599	0.544	0.314	0.361	0.365	0.313	0.408
PC-14	0.509	0.462	0.562	0.527	0.474	0.698	0.723	0.957	0.706	0.553	0.557	0.552	0.674	0.568	0.571	0.2	0.23	0.239	0.23	0.252
NCI-H441	0.223	0.233	0.237	0.232	0.221	0.431	0.546	0.48	0.476	0.428	0.729	0.816	0.781	0.957	0.793	0.271	0.285	0.266	0.271	0.317
NCI-H1993	0.635	0.7	0.687	0.815	0.622	0.777	0.913	0.808	0.832	0.92	0.541	0.501	0.545	0.479	0.53	0.514	0.632	0.605	0.577	0.61
